In a melting point compilation (Tetko et al.; mined from patent text by program, amines drawn as free bases though some values may be those of a salt):

melting point | Structure (SMILES)
109 to 110 °C | CS(=O)(=O)c1ccc(-c2cnn(-c3ccc(F)c(F)c3)c(=O)c2-c2ccc(F)cc2)cc1
154 to 155 °C | CC1(C)OCC(CNc2c([N+](=O)[O-])cnc3cc(OCc4ccccc4)ccc23)O1 (stereo unspecified)
79 to 81 °C | COc1ccc(CCNCC(O)c2ccc(OCc3ccccc3)c(OCc3ccccc3)c2)cc1OC (stereo unspecified)
242 to 243 °C | FC(F)(F)c1ccc2nc(-c3csc(Nc4c(Cl)cccc4Cl)n3)[nH]c2c1
195 °C | COc1ccc(Cl)cc1C(=O)NCCc1ccc(-c2ccco2)c(S(N)(=O)=O)c1
76 to 78 °C | CCOC(=O)CCC1(C)Oc2ccc([N+](=O)[O-])cc2O1 (stereo unspecified)
108 to 110 °C | CCOC(=O)c1cc(-c2ccc(OCc3cccnc3)cc2O[C@H](CCC(=O)O)c2ccccc2C)n[nH]1
161 to 165 °C | CN(C)c1ccc(C2N(c3ccccc3)CCN2c2ccccc2)c(O)c1
53 to 56 °C | C[C@H]1CCCC(C)(C)[C@@H]1C(=O)c1ccc(C#N)c(F)c1
151 to 153 °C | CCc1cc(OCc2ccc(-c3ccccc3C#N)cc2)c2ccccc2n1
90 °C | CN(C)Cc1ccc(CSCCNC(=O)NCCN(C)CCN(Cc2ccc(F)cc2)c2ccccn2)o1
> 255 °C | Cc1ccc2[nH]c3c(c2c1)C(=O)CCC3
175 to 178 °C | CC(=O)c1cc(N2CCCC2)ccc1NC(=O)c1ccc(OCc2ccccc2)cc1
110 °C | CS(=O)(=O)Cc1c(C(=O)c2cnoc2C2CC2)ccc(S(C)(=O)=O)c1Cl
58 to 60 °C | CCOC(=O)c1ccc(C#CCO)cc1
101 to 103 °C | C=C(C)C(=O)Nc1ccc(Nc2ccccc2)cc1
280 to 284 °C | CCOc1cc2ncc(C#N)c(Nc3ccc4c(c3)C(=O)OC4)c2cc1OCC
127 to 130 °C | CN1C(=O)CCCc2ccc(Nc3ncc(Cl)c(N[C@@H]4CCCC[C@H]4NS(C)(=O)=O)n3)cc21
139 to 142 °C | CC(C)(C)OC(=O)Nc1cc(COC2CCCCO2)c(-c2ccc(F)cc2)cc1N (stereo unspecified)
225 to 227 °C | COc1ccccc1NC(=O)Nc1nc(Nc2ccccc2-c2ccccc2)nc(N(CCC(=O)O)CCc2ccccn2)n1
148 to 149 °C | COc1ccc(C#Cc2cc(OC)c(OC)cc2C=O)cc1OC
375 to 377 °C | Cc1cc2nc3ccc(C(N)=O)cn3c(=O)c2s1
148 to 150 °C | O=C1C(=O)N(Cc2ccc(C(F)(F)F)o2)c2cccc(Cl)c21
168 to 169 °C | N=C(NNC(=O)c1ccccc1O)C(Cl)(Cl)Cl
158 to 162 °C | Nc1c2c(nc3ccccc13)CC(O)CC2O (stereo unspecified)

melting point | Structure (SMILES)
151 to 154 °C | CC(C)Sc1c(C(N)=O)n(C)c2ccc(OCc3ccccc3)cc12
159 to 160 °C | CC(C)(C)OC(=O)N1CCc2c(cccc2C(=O)c2cc(Cl)ccc2N)C1
175 to 177 °C | CNC(=O)[C@@H](C[C@H](O)[C@H](CC1CCCCC1)NC(=O)OC(C)(C)C)C1(O)CCCCC1
189 to 190 °C | Brc1nsc2nc3ccccc3n12
170 to 175 °C | CC(C)(C)c1cc(N(C(=O)Cc2ccccc2C(=O)O)c2ccccc2)cc(C(C)(C)C)c1O
196 to 204 °C | CNC(=O)Nc1ccc2c(c1)C(=O)C1(CC1)O2
219 to 221 °C | Cc1cc(C(=O)N2CC(O)C2)ncc1C(c1cc(F)ccc1F)S(=O)(=O)c1ccc(F)cc1 (stereo unspecified)
102 to 105 °C | O=C1C[C@@H](COS(=O)(=O)c2ccccc2)N1
83 to 86 °C | CCOC(=O)CNC(=O)N(C(=O)NCC(=O)OCC)c1ccc(C(=O)/C=C/c2cc(OC)c(OC)c(-c3cccs3)c2)cc1
168 to 171 °C | CCOC(=O)C1C(=O)CC(C)(O)C(C(=O)OCC)C1c1cc(C)c2oc(C)c(C)c2c1 (stereo unspecified)
118 to 121 °C | Oc1ccc(-c2ccc(O)c(Br)c2)cc1Br
87 °C | Nc1cc(N)cc(C(c2c(O)c3c(oc2=O)CCCCCC3)C2CC2)c1 (stereo unspecified)
187 to 189 °C | O=C(CC1CCCCC1)Nc1c(Cl)ccc2nc(N3CCC(NS(=O)(=O)C(F)(F)F)CC3)ccc12
138 °C | CCCC(NC(=O)C1CC(=O)c2cc(F)ccc2O1)c1ccccc1 (single isomer, unassigned; (+))
147 to 148 °C | CCOC(=O)Cc1c(C(=O)CC)sc2[nH]c(C(=O)CC)cc12
147 to 150 °C | CCOC(=O)C=C(C)NC(=O)Nc1cc(C(=O)OC(C)C)c(Cl)cc1F
82 °C | CC(C)(C)N(C(=O)COc1nnc(C(F)(F)F)s1)c1ccc(Cl)cc1
169 to 170 °C | COc1cncnc1N1CCN(CCCc2csc3ccc(C(N)=O)cc23)CC1
115 to 116 °C | CC(CCCl)C(=O)Nc1scc(C(C)(C)C)c1C#N (stereo unspecified)
187 to 189 °C | CCCC(=O)N(Cc1ccc(-c2ccccc2-c2nnn[nH]2)cc1)C(C)(C)C(=O)O
239 to 240 °C | Cc1ccc2c(-c3cc(C(C)(C)C)c(O)c(C(C)(C)C)c3)n[nH]c2n1
175 to 176 °C | Nc1ncnc2c1c(Cl)cn2COC(O)CCO (stereo unspecified)
165 to 167 °C | CC(C)(C)c1cc(N=C=O)no1
145 to 147 °C | C#CCn1c(=O)n(-c2ccccc2)c2ccccc21
197 to 198 °C | Fc1ccc(-c2nc[nH]c2-c2cccs2)cc1

melting point | Structure (SMILES)
65 to 73 °C | Cc1ccc2c(c1)S(=O)CC(COC(=O)Nc1ccccc1)(COC(=O)Nc1ccccc1)C2=O (stereo unspecified)
274 to 276 °C | O=C(O)COc1ccnc2ccccc12
192 to 194 °C | O=c1ccn(-c2cccc(C(F)(F)F)c2)nc1-c1ccn[nH]1
212 to 213 °C | COc1cc(OC)c2c(=O)[nH]c(-c3cc(C)c(OCCN4CCOCC4)c(C)c3)cc2n1
115 °C | Cc1c(CCCC=CC(=O)O)cccc1Cc1ccc(Cl)cc1
176 to 178 °C | N=C(NO)C1C=Cc2ccccc2N1C(=O)c1ccccc1 (stereo unspecified)
203 to 206 °C | CN(C)N=Cc1cc2c(cn1)[nH]c1ccccc12
75 to 79 °C | Cn1c(C=O)c(-c2ccc(F)cc2)c2ccccc21
162 to 164 °C | N#Cc1cc([N+](=O)[O-])ccc1Oc1cc(Cl)c(Cl)c(Cl)c1
92 to 94 °C | CC1CCc2ccc(OCC(O)CNC(C)(C)C)cc2O1 (stereo unspecified)
225 to 232 °C | Cc1cccc(C)c1N1CCN(CCNc2c(Cl)cnn(C)c2=O)CC1
196 to 197 °C | CNC(=O)C1=CC(C)(C(F)(F)F)Oc2ccc([N+](=O)[O-])cc21 (stereo unspecified)
200 °C | Cc1csc(NC(=O)c2nc(C)cc(C#N)c2C)n1
86 to 88 °C | CC(C(=O)O)c1ccc(C(=O)c2ccco2)cc1 (stereo unspecified)
217 to 218 °C | COC(=O)C1Cc2c([nH]c3ccccc23)C(c2ccccc2)N1 (stereo unspecified)
157 to 158 °C | O=C(NCCO)c1cccc(-c2ccc3c(c2)C(Oc2cccc(C(F)(F)F)c2)CC3)c1 (stereo unspecified)
170 to 172 °C | CC(CCCC(C)(C)O)C1CCC2C3CC=C4CC(O)CC(O)C4(C)C3CCC12C (stereo unspecified)
68 to 70 °C | CCCCCCCCC1C(=O)NC(=O)N1CCCCCCC(=O)OCC (stereo unspecified)
247 to 249 °C | Cc1nc(-c2ccc(Cl)cc2)n(-c2ccc(S(N)(=O)=O)cc2)n1
182 to 184 °C | CC(C)Oc1ccc(OCc2ccccc2)cc1-c1nc2cc(CNCC(=O)O)cnc2[nH]1
77 to 78 °C | CCCCCCCCCCCCCCC[C@H]1O[C@@H]1CO
156 to 158 °C | O=C1NCCCc2cc(CCCl)sc21
154 to 156 °C | COC(=O)c1cc(N)ccc1Oc1ccccc1
180 to 182 °C | NC1=NS(=O)N=C1NCCCN(Cc1ccccc1F)c1ccccn1 (stereo unspecified)
228 to 230 °C | CS(=O)(=O)Cc1cc(N)ccc1N1C(=O)c2ccc(Cl)cc2C1=O

melting point | Structure (SMILES)
153 to 155 °C | CC(C#N)(CO)NS(=O)(=O)Cc1ccccc1 (stereo unspecified)
246 to 248 °C | CCN1C(=O)C(=S2CN(CC)c3ccccc32)SC1=S (stereo unspecified)
138 to 141 °C | CCCCOc1nc(N)c2ncn(C3CCCCC3)c2n1
114 to 116 °C | COc1cc(OC)c(C(C)=O)c(O)c1OC
126 to 128 °C | CCNc1nc(CC)c(-c2ccncc2)s1
167 to 168 °C | O=C(NCCO)c1cccc(-c2ccc3c(c2)N(c2ccc(Cl)c(Cl)c2)CC3)c1
170 to 172 °C | COc1ccc2cc(Oc3cnc(N)nc3N)c(C(C)C)cc2c1
148 to 150 °C | CCN(C)C(=O)c1nn(-c2ccc(Cl)cc2)c(=O)c2c(N)scc12
124 to 128 °C | Nc1cc(F)ccc1C(=O)CCCN1CCN(c2cc3ccccc3cn2)CC1
92 to 95 °C | COC(=O)C(Oc1cc(OCc2ccsc2)ccc1C#N)c1ccccc1Br (racemic)
168 to 169 °C | CN(C(CCn1c(=O)cc(C(F)(F)F)[nH]c1=O)C(=O)NO)S(=O)(=O)c1ccc(Oc2cccc(F)c2)cc1 (stereo unspecified)
178 °C | CNC(=S)C1(c2ccncc2)CCCS1 (stereo unspecified)
144 to 146 °C | O=C1N(Cc2ccccn2)c2ccccc2C12COc1cc3c(cc12)OCCO3 (stereo unspecified)
35 °C | CCCCc1cc2cc(O)c(Cl)c(Cl)c2s1
116 to 117 °C | CCOCc1cc2cc(Br)ccc2oc1=Nc1ccc(C)cc1
234 to 236 °C | CC(C)(C)c1ccc(C(=O)n2c3cc(O)c(O)cc3c3ccc(O)c(O)c32)cc1
70 to 71 °C | O=C=NCCC(F)(F)C(F)(F)C(F)(F)C(F)(F)C(F)(F)C(F)(F)C(F)(F)C(F)(F)C(F)(F)C(F)(F)F
138 to 139 °C | N#Cc1ccc(NC(=O)c2cccc(OCc3ccc(OC(F)(F)F)cc3)c2)cc1
148 to 150 °C | CC(=O)c1cc(OCc2ccccc2)cc2c1OC(C)(C)C(=O)N2
197 to 198 °C | O=c1c2[nH]c(C(C3CC3)C3CC3)nc2n(C2CC2)c(=O)n1C1CC1
212 to 214 °C | Cc1ccc([C@H]2Sc3cc(C)ccc3NC(=O)[C@H]2O)cc1
105 °C | O=C(O)C(=NOc1ccccc1)c1ccccc1
154 °C | CNc1ccc(-c2nc3ccc(F)cc3s2)cc1

Structure (SMILES) | melting point
C[C@](O)(COc1ccc(Cl)cc1)C(=O)Nc1ccc(C#N)c(C(F)(F)F)c1 | 146 to 148 °C
O=CC1(Nc2ccccc2)CCN(Cc2ccccc2)CC1 | 118 to 119 °C
N=C(NCCCc1c[nH]cn1)N[N+](=O)[O-] | 156 to 158 °C
